Test results from article PMC7537881, “Biochemical screening for SARS-CoV-2 main protease inhibitors” (PLoS ONE, 2020).
Entries after “also recorded” stand apart in the source; their conditions may differ. Like-named read-outs stand apart in the source and are kept apart here.

Experiments:
[1] = target: T1, SARS-CoV-2 M^pro (Severe acute respiratory syndrome coronavirus 2, UniProt P0DTD1); type: biochemical; details: 1 μM Mpro, 10 μM substrate, 40 μM compound
[2] = target: T1, SARS-CoV-2 M^pro; experiment: biochemical; details: 10 μM substrate, 0.5 μM enzyme, triplicate; error = SEM
[3] = target: T1, SARS-CoV-2 M^pro; experiment: biochemical; type: biochemical; details: for Km: read-out: Km (Michaelis Menten constant)
[4] = route and species not given; ref www.pubchem.gov; cited from earlier work
[5] = system: human immunodeficiency virus (HIV); set-up: method as in PMID 1517963; details: cited from earlier work
[6] = system: mouse; details: ref www.pubchem.gov, cited from earlier work
[7] = system: HIV's reverse transcriptase; set-up: method as in PMID 1517963; details: biochemical assays; cited from earlier work
[8] = system: rat; details: cited from earlier work
[9] = system: hepatitis B virus (HBV); set-up: method as in PMID 31798562; details: cited from earlier work
[10] = system: SARS-CoV M^pro; details: cited from earlier work
[11] = system: SARS-CoV-2; details: cited from earlier work
[12] = system: Vero-cell; details: cited from earlier work
[13] = system: SARS-CoV; details: cited from earlier work
[14] = 0.5 μM Mpro, substrate 1.25-80 μM, two inhibitor concentrations, error = SEM
[15] = fitted in the kinetics experiment with this inhibitor, error = SEM
[16] = most probable model by SSQ, ΔAIC, ΔBIC (Dynafit)

COc1ccc(C(=O)c2ccc(O)cc2)c(O)c1O [2,3,4'-trihydroxy-4-methoxybenzophenone]
Inhibitory activity in the screen [1]: no significant inhibitory activity

CCOc1cccc(C(=O)c2ccc(O)c(O)c2O)c1 [(3-ethoxyphenyl)-(2,3,4-trihydroxyphenyl)methanone]
IC50 [2]: 10.6 ± 1.3 µM

CCOc1ccc(C(=O)c2ccc(O)c(O)c2O)cc1 [(4-ethoxyphenyl)-(2,3,4-trihydroxyphenyl)methanone]
IC50 [2]: 9 ± 1.5 µM

O=[N+]([O-])C(Br)(CO)CO [Bronopol (3), 2-bromo-2-nitropropane-1,3-diol]
IC50 [2]: 4.4 ± 0.6 µM | Ki [3, 14]: 2.5 ± 0.3 µM | kcat (turnover number) [3, 15]: 0.010 s⁻¹ | Inhibition mechanism [3, 16]: non-competitive | Inhibition mechanism ([3]; most probable model by SSQ, ΔAIC, ΔBIC (Dynafit), listed as bronopol (3)): mixed or non-competitive inhibition | LD50 [4]: 180 mg/kg

COc1cc(-c2ccc(/N=N/c3ccc4c(S(=O)(=O)O)cc(S(=O)(=O)O)c(N)c4c3O)c(OC)c2)ccc1/N=N/c1ccc2c(S(=O)(=O)O)cc(S(=O)(=O)O)c(N)c2c1O [Chicago Sky Blue (12), Chicago Sky Blue]
Inhibition of HIV in cellular assays [5]: inhibit | IC50 [2]: 7.7 ± 1.6 µM | LD50 ([6]; IV): 2260 mg/kg | Ki [3, 14]: 1.3 ± 0.2 µM | kcat (turnover number) [3, 15]: 0.013 s⁻¹ | Inhibition mechanism [3, 16]: competitive inhibition | Inhibition of HIV reverse transcriptase [7]: inhibit

O=C1C(Cl)=C(Cl)C(=O)C(Cl)=C1Cl [Chloranil (8), Chloranil]
IC50 [2]: 4.1 ± 0.8 µM | LD50 ([8]; oral, rat, ref www.pubchem.gov): 4000 mg/kg

Cc1cc(-c2ccc(/N=N/c3ccc4c(S(=O)(=O)O)cc(S(=O)(=O)O)c(N)c4c3O)c(C)c2)ccc1/N=N/c1ccc2c(S(=O)(=O)O)cc(S(=O)(=O)O)c(N)c2c1O [Evans blue (11), Evans blue]
Inhibition of HIV in cellular assays [5]: inhibit | IC50 [2]: 0.2 ± 0.06 µM | Inhibition of HBV in cellular assays [9]: inhibitor | LD50 ([6]; IP): 340 mg/kg | Ki [3, 14]: 0.21 ± 0.02 µM | kcat (turnover number) [3, 15]: 0.010 s⁻¹ | Inhibition mechanism [3, 16]: competitive inhibition | Inhibition of HIV reverse transcriptase [7]: inhibit

CC1=C(CCC(=O)O)c2cc3[nH]c(cc4nc(cc5[nH]c(cc1n2)c(C)c5C(C)O)C(C)=C4C(C)O)c(C)c3CCC(=O)O (stereo not drawn) [Hematoporphyrin (5), Hematoporphyrin]
IC50 [2]: 3.9 ± 0.6 µM | LD50 ([6]; IV): 307 mg/kg | Ki [3, 14]: 5.9 ± 0.5 µM | kcat (turnover number) [3, 15]: 0.011 s⁻¹ | Inhibition mechanism [3, 16]: non-competitive | Inhibition mechanism ([3]; most probable model by SSQ, ΔAIC, ΔBIC (Dynafit), listed as hematoporphyrin (5)): mixed or non-competitive inhibition

CC(=O)[O][Hg][c]1ccccc1 [Phenylmercuric acetate (2), Phenylmercuric acetate]
IC50 [2]: 0.4 ± 0.06 µM | LD50 ([8]; oral, rat, ref www.pubchem.gov): 41 mg/kg | Inhibition mechanism [3]: competitive inhibition | Ki [3]: 0.11 ± 0.03 µM | kcat (turnover number) [3]: 0.013 s⁻¹ | Km [3]: 52 µM

CC1=CC(=O)c2c(O)cccc2C1=O [Plumbagin (9), Plumbagin]
IC50 [2]: 17.1 ± 9 µM | LD50 ([6]; oral): 16 mg/kg

C=CC1=C(C)c2cc3[nH]c(cc4nc(cc5[nH]c(cc1n2)c(C)c5CCC(=O)O)C(CCC(=O)O)=C4C)c(C)c3C=C [Protoporphyrin IX]
IC50 [2]: 23 ± 2.4 µM

O=C(OCC1OC(OC(=O)c2cc(O)c(O)c(OC(=O)c3cc(O)c(O)c(O)c3)c2)C(OC(=O)c2cc(O)c(O)c(OC(=O)c3cc(O)c(O)c(O)c3)c2)C(OC(=O)c2cc(O)c(O)c(OC(=O)c3cc(O)c(O)c(O)c3)c2)C1OC(=O)c1cc(O)c(O)c(OC(=O)c2cc(O)c(O)c(O)c2)c1)c1cc(O)c(O)c(OC(=O)c2cc(O)c(O)c(O)c2)c1 (stereo not drawn) [Tannic acid (4), Tannic acid]
Relative activity (initial rate / negative control) [1]: 0.0 (SD = 0.014) | IC50 [10]: 3 µM | IC50 [2]: 2.1 ± 0.2 µM | Ki [3, 14]: 1.4 ± 0.14 µM | kcat (turnover number) [3, 15]: 0.010 s⁻¹ | Inhibition mechanism [3, 16]: Competitive | Inhibition mechanism ([3]; most probable model by SSQ, ΔAIC, ΔBIC (Dynafit), listed as tannic acid (4)): competitive inhibition

C[CH2][Hg][S]c1ccccc1C(=O)[O-].[Na+] [Thimerosal (1), Thimerosal]
IC50 [2]: 0.6 ± 0.1 µM | LD50 ([8]; oral, rat, ref www.pubchem.gov): 75 mg/kg | Inhibition mechanism [3]: mixed or non-competitive inhibition; also recorded: Mixed | Ki [3]: 0.6 ± 0.2 µM | kcat (turnover number) [3]: 0.010 s⁻¹ | Km [3]: 47 ± 8 µM

COc1cc(C(=S)N2CCOCC2)ccc1O [Vanitiolide (10)]
IC50 [2]: 4.6 ± 0.6 µM

COC(=O)N[C@H](C(=O)N[C@@H](Cc1ccccc1)[C@@H](O)CN(Cc1ccc(-c2ccccn2)cc1)NC(=O)[C@@H](NC(=O)OC)C(C)(C)C)C(C)(C)C [atazanavir]
EC50 [11]: 2 µM

O=c1c2ccccc2[se]n1-c1ccccc1 [ebselen]
LD50 ([8]; in rats): > 4,600 mg/kg

CCOC(=O)c1cc(=O)oc2cc(O)c(O)cc12 [esculetin-4-carboxylic acid ethyl ester]
TC50 (median toxic concentration) [12]: > 800 µM | IC50 [10]: 46 µM | EC50 [13]: 112 µM
